In one assay the test system is PC-3. The assay is classed as cell-based. Particulars: MTT, 48 hours. The procedure:
(§1) MDA-MB-231, MCF-7, DU-145, PC-3, and NIH-3T3 cell lines were procured from the American Type Culture Collection and used within ten consecutive passages to ensure consistent cell behavior. MDA-MB-231, MCF-7, and NIH-3T3 cells were maintained at 37 °C and 5% CO2 in Dulbecco's modified Eagle's medium (DMEM) high glucose (Hyclone) supplemented with 10% fetal bovine serum (FBS) and 1% Antibiotic-Antimycotic (Gibco), while DU-145 and PC-3 cells were grown in RPMI-1640 supplemented with the same concentration of FBS and Antibiotic-Antimycotic. The media was replenished every 2 days. Cells were checked for mycoplasma at regular intervals using a PCR-based Mycoplasma detection kit plasmocin prophylactic (InvivoGen). In all experiments, cells were maintained in serum-free DMEM for 6 h before peptide treatment. Peptide treatment was done in the media containing 0.1% fetal bovine serum for 48 h in all the experiments unless otherwise stated.
(§2) Cell viability was determined by 3-[4,5-dimethylthiazol-2-yl]-2,5 diphenyl tetrazolium bromide (MTT) assay as described earlier ([52]). ProTox-II "Prediction of Toxicity of Chemicals" web server was used for toxicology assessment ([19]). See the Supporting Information for full experimental details.
(§3) Full Experimental Method for Cell Viability Assay:
(§4) Cell viability of murine NIH- 3T3 cells, as well as MDA- MB -231 , MC F-7, PC- 3, and DU-145 cells, wa s assessed through the MT T assay as described previously(1). Approximately
(§5) 5000 cells per well were seeded in a 96-well plate and allowed to incubate overnight for attachment. Following attachment, the growth medium was replaced wit h a fresh medium
(§6) containing serial dilutions of peptides. The cells we re then incubated for 48 hours in a 5% CO2 incubator . After incubation, 10 μl of a 5 mg/mL MT T solution was introduced to each
(§7) well and left to incubate for an additional 2 hours . Subsequently, the entire medium, along wit h the MT T solution, was aspirated, and the remaining formazan crystals were dissolved
(§8) in 200 μl of DMSO. The absorbance was measured at 595 nm using a Biotek Synergy 2 Plate Reader. […]
(§9) ProTox-II "Prediction of Toxicity of Chemicals" we b server was used for toxicology assessment. […]

Another assay deals with MDA-MB-231. It is filed as cell-based. Particulars: MTT, 48 hours. The procedure:
as §1, §2, §3, §4, §5, §6, §7, §8, §9

The subject of another assay is MCF-7. The assay is classed as cell-based. Particulars: MTT, 48 hours. The procedure:
as §1, §2, §3, §4, §5, §6, §7, §8, §9

A further assay relates to DU-145. It is filed as cell-based. Conditions: MTT, 48 hours. The procedure:
as §1, §2, §3, §4, §5, §6, §7, §8, §9

Another assay concerns NIH-3T3. It is filed as cell-based, murine. Particulars: MTT, 48 hours; normal cells. The procedure: as §1, §2, §3, §4, §5, §6, §7, §8, §9
The test system of assay [1] is MDA-MB-231 cells. The assay can be described thus: Transwell invasion assay. Particulars: 24 h. It is filed as cell-based. The procedure:
(§10) The wound healing assay was performed using two breast cancer cell lines, MDA-MB-231 and MCF-7, and two prostate cancer cell lines, PC-3 and DU-145, to evaluate the antimigratory capacity of the peptides. […] The cells were grown to approximately 80% confluency in 12-well tissue culture plates, and a cell-free area was created by scraping the monolayer. The peptides were added, and the cells were incubated at 37 °C with 5% CO2 for 24 h. Wound closure was assessed by imaging the wounds at 0 and 24 h, and the wound areas were quantified using ImageJ software (https://imagej.net/ij/). In the transwell invasion assay, MDA-MB-231 cells were serum starved for 4 h followed by a pretreatment with increasing concentrations of each peptide in a 0.1% serum-containing DMEM for 24 h. The cells were then trypsinized, resuspended in same media for the second treatment of peptides, and counted. Next, 40,000 cells were resuspended in 0.1% serum containing DMEM and added to the upper chamber of Transwell plates (Corning Life Sciences) with a polyethylene terephthalate membrane (6.4 mm diameter, 8 μm pore size). The bottom chambers were filled with DMEM containing 10% FBS as a chemoattractant. The transwell plates were incubated at 37 °C with 5% CO2 for 24 h to allow the invasion of cells through the membrane. The invaded cells on the lower side of the membrane were fixed with 4% paraformaldehyde for 15 min, followed by a PBS wash. The membrane inserts were further fixed with ice-cold methanol for 20 min and stained with 0.25% (w/v) crystal violet. After incubation, the noninvasive cells on the upper surface of the membrane were gently removed using a cotton swab. Random fields were chosen for imaging, and the number of invaded cells was counted using ImageJ software. The results were expressed as the average number of invaded cells compared with the control.

Assay [2] concerns MDA-MB-231 cells. The assay is described as follows: Wound healing assay. It is filed as cell-based. Particulars: equimolar peptide concentrations; compared to untreated cells. The procedure: as §10
For assay [3], the system named is DU-145 cells. The assay can be described thus: Quantitative real-time PCR of EMT-related genes. The assay is classed as cell-based. Conditions: 48 h, 90 μM; for inhibition of the majority of the genes examined in the PCR analysis: except for SNAIL. The procedure:
18S RNA transcript levels were used for internal control. […] E-cadherin and SNAIL are increased and decreased, respectively, when probed with antibodies specific for these proteins as compared to the untreated. […] Densitometry was determined and normalized to total protein or β-actin. Peptide concentration: 90 μM. All the assays were performed in triplicates and the results are expressed as means ± SD. […] EMT, epithelial-mesenchymal transition; MMP-9, matrix metalloproteinase 9; NF-κB, nuclear factor kappa B.
Total RNA was extracted using the TRIzol reagent (Invitrogen). One microgram of total RNA was used for complementary DNA reverse transcription using the Superscript-III First Strand Synthesis kit (Invitrogen) following the manufacturer's protocol. All real-time PCR reactions were performed in duplicates in a 20 μl volume using SYBR Green Master Mix (Invitrogen) in a Realplex2 Mastercycler ep gradient S thermal cycler (Eppendorf). The PCR program followed for all the primers was an activation at 95 °C for 15 min, followed by 40 cycles of 95 °C for 30 s, 54 °C for 1 min, and 72 °C for 45 s. The reaction was finally put to hold at 4 °C. Subsequently, 18S was used as the reference gene for the mRNA levels. Relative change in gene expression was calculated according to the ΔΔCt method ([53], [54]).

A further assay relates to PC-3 cells. The assay is described as follows: Wound healing assay. Conditions: scrambled peptides compared to LA3IK and RP-7 at equivalent concentrations. The assay is classed as cell-based. The procedure: as §10
A further assay relates to MCF-7 cells. The assay can be described thus: Wound healing assay. It is filed as cell-based. Particulars: scrambled peptides compared to LA3IK and RP-7 at equivalent concentrations. The procedure:
as §10

For assay [4], the system named is DU-145 cells. The assay is described as follows: Wound healing assay. Conditions: scrambled peptides compared to LA3IK and RP-7 at equivalent concentrations. It is filed as cell-based. The procedure:
as §10

Ends that are not written are not given here. Some results are limits rather than exact numbers.

Consider Ac-SRPPCVIL-NH2 [SR-8], for which the half-maximal inhibitory concentration (IC50) (usually the midpoint of a concentration-inhibition curve) in the assay on PC-3 is greater than 600 µM; in the assay with MDA-MB-231 it was 528.3 ± 4.57 µM; in the assay with MCF-7, 141 ± 12.9 µM; with DU-145, greater than 600 µM; in the assay with NIH-3T3 it was greater than 600 µM. Further, the “number of invaded MDA-MB-231 cells / inhibition of invasion” value in the assay on MDA-MB-231 cells [1] was “limited inhibition”. Moreover, the inhibition of migration result with MDA-MB-231 cells [2] is reported as “limited inhibition”.

In the case of LASAVK [LA-6, LASAVK], the IC50 with PC-3, in the assay with MDA-MB-231, in the assay on MCF-7, in the assay with DU-145 and with NIH-3T3 was greater than 600 µM in each case. The “number of invaded MDA-MB-231 cells / inhibition of invasion” value with MDA-MB-231 cells [1] is reported as “limited inhibition”. Besides, the inhibition of migration result with MDA-MB-231 cells [2] is reported as “limited inhibition”.

Consider Ac-LAKAVI-NH2 [LA3IK-SCR], for which the IC50 in the assay on PC-3 is 319 ± 13.6 µM; in the assay on MDA-MB-231, 243 ± 8.16 µM; with MCF-7, 133 ± 9.52 µM; with DU-145 it was 352 ± 7.18 µM; with NIH-3T3 it was greater than 600 µM. Further, in the assay with DU-145 cells [3], the “gene expression in Zeb-1 and SNAIL” value was “statistically diminished”. For the same substance, the “inhibition of the majority of the genes examined in the PCR analysis” value in the assay with DU-145 cells [3] is on record as “statistically nonsignificant inhibition”. Further, the inhibition of migration result in the assay with MDA-MB-231 cells [2] is “nonsignificant inhibition”. Also, the “antimigratory activity in wound healing assay” value in the assay with PC-3 cells, with MCF-7 cells and with DU-145 cells [4] was “reduced antimigratory activity” each time.

As for Ac-RPPLVIC-NH2 [RP-7 SCR], the IC50 is 128 ± 11.7 µM with PC-3; 156 ± 8.15 µM in the assay on MDA-MB-231; 150 ± 10.3 µM with MCF-7; 137 ± 5.98 µM with DU-145; greater than 600 µM in the assay with NIH-3T3. In addition, the “expression of SLUG and Zeb-1” value in the assay on DU-145 cells [3] was “reduced expression”. In addition, the “inhibition of the majority of the genes examined in the PCR analysis” value in the assay with DU-145 cells [3] is recorded as “statistically nonsignificant inhibition”. Further, in the assay on MDA-MB-231 cells [2], the inhibition of migration entry was “nonsignificant inhibition”. The “antimigratory activity in wound healing assay” value in the assay with PC-3 cells, in the assay with MCF-7 cells and in the assay with DU-145 cells [4] was “reduced antimigratory activity” throughout.

The record behind these values is publication PMC10878790 (The Journal of Biological Chemistry, 2024).
